Test results published in patent US10391201B2, “Gene therapy” (Ospedale San Raffaele S.r.l., priority 2014, dated 2019).

Columns and labels:
[1] = tested on: CD4+ T cells; experiment: SINLV-GFP lentiviral transduction of activated CD4+ T cells; type: cell-based, human
Protocol: CD4^+ T cells were activated in RPMI, supplemented with 10% FBS, penicillin (100 IU/mL), streptomycin (100 μg/mL), 2% glutamine, phytohaemagglutanin (PHA) (2 μg/mL, Roche) and IL-2 (300 IU/mL, Novartis) for three days and maintained in RPMI supplemented with 10% FBS, penicillin (100 IU/mL), streptomycin (100 μg/mL), 2% glutamine and IL-2 (300 UI/mL). Monocyte-derived macrophages (MDM) were differentiated from isolated CD14^+ monocytes in DMEM supplemented with 10% FBS, penicillin (100 IU/mL), streptomycin (100 μg/mL), 2% glutamine and 5% human serum AB (Lonza) for seven days.
Human CB and BM-derived haematopoietic stem/progenitor cells (HSPC) were cultured in serum-free StemSpan medium (StemCell Technologies) supplemented with 100 ng/mL recombinant human stem cell factor (rhSCF), 20 ng/mL recombinant human thrombopoietin (rhTPO), 100 ng/mL recombinant human Flt3 ligand (rhFlt3) and 20 ng/mL recombinant human IL6 (rhIL6) (all from Peprotech) 16 to 24 hours prior to transduction. […] After transduction, cells were washed and maintained serum-free StemSpan supplemented with cytokines as above until the reading of GFP-positive (GFP+) cells by FACS. […]
GFP expression in transduced cells was measured 5-7 days post-transduction. […]

[2] = tested on: Human cord blood-derived CD34+ cells transplanted in NSG mice; experiment: Transplantation of transduced human HSPC in NSG mice; type: in vivo, NOD-SCID-IL2Rg−/− (NSG) mice
Protocol: NOD-SCID-IL2Rg−/− (NSG) mice were purchased from Jackson laboratory. All animal procedures were performed according to protocols approved by the Animal Care and Use Committee of the Ospedale San Raffaele (IACUC 661) and communicated to the Ministry of Health and local authorities according to Italian law. […] After transduction, 1.3×10^5 cells were infused into the tail vein of sublethally irradiated 10-week-old NSG mice (radiation dose: 200 cGy for mice weighing 18-25 g and 220 cGy for mice above 25 g of weight). Transduced and untransduced cells were also cultured in vitro for 14 days for further analysis. In vitro cultured cells and BM cells isolated from transplanted mice at the time of sacrifice were then used to quantify the VCN by qPCR.
For each mouse, 250 μL of peripheral blood were added to 15 μL of PBS containing 45 mg/mL EDTA. For immunostaining, a known volume of whole blood (100 μL) was first incubated with anti-human FcγIII/II receptor (Cd16/Cd32) blocking antibodies for 15 min at 4° C. and then incubated in the presence of monoclonal antibodies (for antibodies, see Table 1) for 20 min at 4° C. Erythrocytes were removed by lysis with the TQ-Prep workstation (Beckman-Coulter) in the presence of an equal volume of FBS (100 μL) to protect white blood cells.
BM cells were obtained by flushing the femurs in PBS 2% FBS solution. Cells (1×10^6 cells) were washed, resuspended in 100 μL of PBS containing 2% FBS, and incubated with anti-human receptor (Cd16/Cd32) blocking antibodies for 15 min at 4° C. Staining was then performed with monoclonal antibodies (for antibodies, see Table 1) for 20 min at 4° C. Cells were washed and finally resuspended in PBS containing 2% FBS.
Spleens were first smashed and the resulting cell suspension was passed through 40 μm nylon filter and washed in cold phosphate buffered saline (PBS) containing 2 mM EDTA and 0.5% bovine serum albumin (BSA). Cells were incubated with anti-human receptor (Cd16/Cd32) blocking antibodies for 15 min at 4° C. and then stained with anti-human monoclonal antibodies (for antibodies, see Table 1) for 20 min at 4° C. Cells were finally washed and resuspended in PBS containing 2% FBS.

[3] = tested on: CB-derived CD34+ HSPC clonogenic progenitors; experiment: Colony-forming cell assay of transduced CB-derived CD34+ cells; type: cell-based, human; conditions: MOI 10; plating of vital cells in methylcellulose (FIG. 21A)
Protocol: Colony-forming cell assays were performed by plating 8×10^2 human cord blood-derived CD34^+ cells transduced with SINLV-GFP at a MOI of 10 in presence of the different compounds in a methylcellulose-based medium (Methocult GF4434, Stem Cell Technologies). 15 days later, colonies were scored by light microscopy for colony numbers and morphology. CFU-E and BFU-E were scored as erythroid colonies, while CFU-G, CFU-M, CFU-GM and CFU-GEMM as myeloid colonies.
Human differentiated cells from CFC were harvested from a single plate (pool of colonies) and mixed into a single cell suspension. Cells were then washed and resuspended in PBS containing 2% FBS. For immunostaining, cells were incubated with anti-human receptor blocking antibodies for 15 min at 4° C. and then stained for 20 min at 4° C. with anti-human CD235a and CD33 antibodies (for antibodies, see Table 1). To exclude dead cells from the analysis, cells were washed and resuspended in PBS containing 10 ng/mL 7-aminoactinomycin D (7-AAD).

With `CO[C@H]1C[C@@H]2CC[C@@H](C)[C@@](O)(O2)C(=O)C(=O)N2CCCC[C@H]2C(=O)O[C@H]([C@H](C)C[C@@H]2CC[C@@H](O)[C@H](OC)C2)CC(=O)[C@H](C)/C=C(\C)[C@@H](O)[C@@H](OC)C(=O)[C@H](C)C[C@H](C)/C=C/C=C/C=C/1C` [rapamycin, Rapamycin] the “impact on transduction among the different CA mutants” value ([1]; CA mutant SINLVs MOI 1) was “did not vary”, the “impact on LV transduction efficiency (in words)” value ([1]; MOI 1, 20 μm FK506 or 10 μg/mL rapamycin) was “a similar trend was observed” and the “overall percentage of GFP+ cells in the spleen” value ([2]; 20 weeks post-transplant (FIG. 22H), DMSO 49.0±5) was 80.8±1%. The “GFP+/hCD45+ cells in peripheral blood” value ([2]; NSG mice, 11 weeks after transplant (FIG. 22C), DMSO 48±6) was 78±2%, the “VCN in the BM cells” value ([2]; NSG mice, 20 weeks post-transplant, DMSO 0.9±0.2) was 3.6±0.4 and the “levels of engraftment in the BM with respect to controls (in words)” value ([2]; NSG mice, 20 weeks post-transplant, p<0.047 v. DMSO) was “modest but statistically significant increase”. The “number of total, CFU-GM (myeloid) and BFU-E (erythroid) colonies” value [3] was “No significant differences”.
